Assay results published in patent US12091411B2, “IRAK degraders and uses thereof” (Kymera Therapeutics, Inc., priority 2022, dated 2024).
Like-named read-outs stand apart in the source and are kept apart here.

Biological target: T1, IRAK4 (Homo sapiens, UniProt Q9NWZ3)
T1 construct: Degradation of IRAK4 in OCI-LY10 was quantitatively measured using Meso Scale Discovery technology; endogenous in cells; host or cells: OCI-LY10
T1 sequence (Q9NWZ3 1-460): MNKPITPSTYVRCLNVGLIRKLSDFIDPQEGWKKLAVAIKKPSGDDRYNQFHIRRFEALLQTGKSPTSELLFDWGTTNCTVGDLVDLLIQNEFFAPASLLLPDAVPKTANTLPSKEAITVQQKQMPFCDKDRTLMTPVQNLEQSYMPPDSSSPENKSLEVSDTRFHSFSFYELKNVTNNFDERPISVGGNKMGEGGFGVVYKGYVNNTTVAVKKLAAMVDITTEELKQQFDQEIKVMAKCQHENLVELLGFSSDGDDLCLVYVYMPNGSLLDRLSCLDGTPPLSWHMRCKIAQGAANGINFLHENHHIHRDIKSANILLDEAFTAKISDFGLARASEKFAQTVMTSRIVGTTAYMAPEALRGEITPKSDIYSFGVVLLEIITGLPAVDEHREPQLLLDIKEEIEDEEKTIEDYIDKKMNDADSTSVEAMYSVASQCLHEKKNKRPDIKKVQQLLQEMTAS
Assay: IRAK4 MSD Degradation in OCI-LY10
Type: cell-based
Conditions: OCI-LY10 cells, MSD
Experimental: Degradation of IRAK4 in OCI-LY10 was quantitatively measured using Meso Scale Discovery technology. […] Compounds were then added to the assay plates with a final top concentration of 1 to 10 μM in a 1:3 dilution series with total of 8 doses. The assay plates were then incubated for 4 to 24 hours at 37° C. under 5% CO2. […] To prepare MSD assay plates (Meso Scale Discovery Catalog number L15XA-3), the plates were coated with 2 μg/mL capture antibody (mouse Anti-IRAK4 antibody [2H9], ab119942) in PBS, at 40 μL/well. […] Cell lysates were then added to MSD assay plates and the plates were incubated at room temperature for 1 hour. The plates were then washed 3 times with 150 μL/well TBST buffer and 25 μL/well primary detection antibody (rabbit Anti-IRAK4 antibody [Y279], from Abcam. Catalog number ab32511, 1 μg/mL). The assay plates were then incubated at room temperature for 1 hour, washed 3 times with 150 μL/well TBST buffer and 25 μL/well secondary detection antibody, SULFO-TAG anti-rabbit antibody were added (anti-rabbit antibody from Meso Scale Discovery, Catalog number R32AB-1, 1 μg/mL). The assay plates were then incubated at room temperature for 1 hour, washed 3 times with 150 μL/well TBST buffer, and 150 μL/well MSD reading buffer (Meso Scale Discovery catalog number R92TC-2) was added. The plates were then analyzed by a MSD reader (Meso Scale Discovery, Model Quick Plex SQ 120). The data was then analyzed by software Prism 7.0 from GraphPad and the dose-depended IRAK4 degradation were fit using a three-parameter logistic equation to calculate DC50.
The letter codes for IRAK4 DC50 include: A (<0.01 μM); B (0.01 to <0.1 μM); C (0.1 to 0.2 μM); and D (>0.2 μM or not tested).

[1] = 4 hrs incubation, read-out: IRAK4 degradation in OCI-LY10 at 4 hrs: DC50
[2] = 24 hrs incubation, read-out: IRAK4 degradation in OCI-LY10 at 24 hrs: DC50

Cn1c(=O)n(C2CCC(=O)NC2=O)c2cccc(C#CCOC3CCN(C[C@H]4CC[C@H](n5cc(NC(=O)c6cnn7ccc(N8C[C@H]9C[C@@H]8CO9)nc67)c(C(F)F)n5)CC4)CC3(F)F)c21 (stereo partly shown) [I-18]
DC50 [1]: 10 to 100 nM
DC50 [2]: > 200 nM

Cn1c(=O)n(C2CCC(=O)NC2=O)c2cccc(C#CCOC3CC4CC3CN4C[C@H]3CC[C@H](n4cc(NC(=O)c5cnn6ccc(N7C[C@H]8C[C@@H]7CO8)nc56)c(C(F)F)n4)CC3)c21 (stereo partly shown) [I-19]
DC50 [1]: 100 to 200 nM
DC50 [2]: > 200 nM

Cn1c(=O)n(C2CCC(=O)NC2=O)c2cccc(C#CCOC3CN(C[C@H]4CC[C@H](n5cc(NC(=O)c6cnn7ccc(N8C[C@H]9C[C@@H]8CO9)nc67)c(C(F)F)n5)CC4)C3)c21 (stereo partly shown) [I-20]
DC50 [1]: < 10 nM
DC50 [2]: > 200 nM

Cn1c(=O)n(C2CCC(=O)NC2=O)c2cccc(C#CCO[C@H]3CCN(C[C@H]4CC[C@H](n5cc(NC(=O)c6cnn7ccc(N8C[C@H]9C[C@@H]8CO9)nc67)c(C(F)F)n5)CC4)C3)c21 (stereo partly shown) [I-21]
DC50 [1]: < 10 nM
DC50 [2]: > 200 nM

Cn1c(=O)n(C2CCC(=O)NC2=O)c2cccc(C#CCO[C@@H]3CCN(C[C@H]4CC[C@H](n5cc(NC(=O)c6cnn7ccc(N8C[C@H]9C[C@@H]8CO9)nc67)c(C(F)F)n5)CC4)C[C@@H]3F)c21 (stereo partly shown) [I-22]
DC50 [1]: 10 to 100 nM
DC50 [2]: > 200 nM

Cn1c(=O)n(C2CCC(=O)NC2=O)c2cccc(C#CCO[C@H]3CCN(C[C@H]4CC[C@H](n5cc(NC(=O)c6cnn7ccc(N8C[C@H]9C[C@@H]8CO9)nc67)c(C(F)F)n5)CC4)C[C@@H]3F)c21 (stereo partly shown) [I-23]
DC50 [1]: 10 to 100 nM
DC50 [2]: > 200 nM

Cn1c(=O)n(C2CCC(=O)NC2=O)c2cccc(C#CCO[C@@H]3CCN(C[C@H]4CC[C@H](n5cc(NC(=O)c6cnn7ccc(N8C[C@H]9C[C@@H]8CO9)nc67)c(C(F)F)n5)CC4)C3)c21 (stereo partly shown) [I-24]
DC50 [1]: 10 to 100 nM
DC50 [2]: > 200 nM

C[C@H]1CN(C[C@H]2CC[C@H](n3cc(NC(=O)c4cnn5ccc(N6C[C@H]7C[C@@H]6CO7)nc45)c(C(F)F)n3)CC2)CC[C@@H]1OCC#Cc1cccc2c1n(C)c(=O)n2C1CCC(=O)NC1=O (stereo partly shown) [I-25]
DC50 [1]: 10 to 100 nM
DC50 [2]: < 10 nM

C[C@H]1CN(C[C@H]2CC[C@H](n3cc(NC(=O)c4cnn5ccc(N6C[C@H]7C[C@@H]6CO7)nc45)c(C(F)F)n3)CC2)CC[C@H]1OCC#Cc1cccc2c1n(C)c(=O)n2C1CCC(=O)NC1=O (stereo partly shown) [I-26]
DC50 [1]: 10 to 100 nM
DC50 [2]: > 200 nM

Cn1c(=O)n(C2CCC(=O)NC2=O)c2cccc(C#CC3CN(C[C@H]4CC[C@H](n5cc(NC(=O)c6cnn7ccc(N8C[C@H]9C[C@@H]8CO9)nc67)c(C(F)F)n5)CC4)CCO3)c21 (stereo partly shown) [I-27]
DC50 [1]: 10 to 100 nM
DC50 [2]: > 200 nM

Cn1c(=O)n(C2CCC(=O)NC2=O)c2cccc(C#CCOC3CCN(C[C@H]4C[C@H](n5cc(NC(=O)c6cnn7ccc(N8C[C@H]9C[C@@H]8CO9)nc67)c(C(F)F)n5)C4)CC3)c21 (stereo partly shown) [I-28]
DC50 [1]: < 10 nM
DC50 [2]: > 200 nM

C[C@H]1C[C@@H](OCC#Cc2cccc3c2n(C)c(=O)n3C2CCC(=O)NC2=O)CCN1C[C@H]1CC[C@H](n2cc(NC(=O)c3cnn4ccc(N5C[C@H]6C[C@@H]5CO6)nc34)c(C(F)F)n2)CC1 (stereo partly shown) [I-29]
DC50 [1]: < 10 nM
DC50 [2]: > 200 nM

Cn1c(=O)n(C2CCC(=O)NC2=O)c2cccc(C#CCOC3C4CC3CN(C[C@H]3CC[C@H](n5cc(NC(=O)c6cnn7ccc(N8C[C@H]9C[C@@H]8CO9)nc67)c(C(F)F)n5)CC3)C4)c21 (stereo partly shown) [I-30]
DC50 [1]: 10 to 100 nM
DC50 [2]: > 200 nM

Cn1c(=O)n(C2CCC(=O)NC2=O)c2cccc(C#CCN3CCN(C[C@H]4CC[C@H](n5cc(NC(=O)c6cnn7ccc(N8C[C@H]9C[C@@H]8CO9)nc67)c(C(F)F)n5)CC4)CC3)c21 (stereo partly drawn) [I-31, N-[3-(difluoromethyl)-1-[4-[[4-[3-[1-(2,6-dioxo-3-piperidyl)-3-methyl-2-oxo-benzimidazol-4-yl]prop-2-ynyl]piperazin-1-yl]methyl]cyclohexyl]pyrazol-4-yl]-5-[(1R,4R)-2-oxa-5-azabicyclo[2.2.1]heptan-5-yl]pyrazolo[1,5-a]pyrimidine-3-carboxamide]
DC50 [1]: < 10 nM
DC50 [2]: > 200 nM

C[C@@H]1C[C@@H](OCC#Cc2cccc3c2n(C)c(=O)n3C2CCC(=O)NC2=O)CCN1C[C@H]1CC[C@H](n2cc(NC(=O)c3cnn4ccc(N5C[C@H]6C[C@@H]5CO6)nc34)c(C(F)F)n2)CC1 (stereo partly shown) [I-33]
DC50 [1]: < 10 nM
DC50 [2]: > 200 nM

Cn1c(=O)n(C2CCC(=O)NC2=O)c2cccc(C#CCO[C@@H]3CCN(C[C@H]4CC[C@H](n5cc(NC(=O)c6cnn7ccc(N8C[C@H]9C[C@@H]8CO9)nc67)c(C(F)F)n5)CC4)C[C@@H]3F)c21 (stereo partly shown) [I-35]
DC50 [1]: 10 to 100 nM
DC50 [2]: > 200 nM

Cn1c(=O)n(C2CCC(=O)NC2=O)c2cccc(C#CCO[C@H]3CCN(C[C@H]4CC[C@H](n5cc(NC(=O)c6cnn7ccc(N8C[C@H]9C[C@@H]8CO9)nc67)c(C(F)F)n5)CC4)C[C@H]3F)c21 (stereo partly shown) [I-36]
DC50 [1]: 10 to 100 nM
DC50 [2]: > 200 nM

C[C@H]1CN(C[C@H]2CC[C@H](n3cc(NC(=O)c4cnn5ccc(N6C[C@H]7C[C@@H]6CO7)nc45)c(C(F)F)n3)CC2)CC[C@@H]1OCC#Cc1cccc2c1n(C)c(=O)n2C1CCC(=O)NC1=O (stereo partly shown) [I-37]
DC50 [1]: < 10 nM
DC50 [2]: < 10 nM

COc1ccc2c(c1C#CCN1CCN(C[C@H]3CC[C@H](n4cc(NC(=O)c5cnn6ccc(N7C[C@H]8C[C@@H]7CO8)nc56)c(C(F)F)n4)CC3)CC1)n(C)c(=O)n2C1CCC(=O)NC1=O (stereo partly shown) [I-39]
DC50 [1]: < 10 nM
DC50 [2]: > 200 nM

Cn1c(=O)n(C2CCC(=O)NC2=O)c2cccc(C#CC3CCN(C[C@H]4CC[C@H](n5cc(NC(=O)c6cnn7ccc(N8C[C@H]9C[C@@H]8CO9)nc67)c(C(F)F)n5)CC4)CC3)c21 (stereo partly shown) [I-40]
DC50 [1]: < 10 nM
DC50 [2]: > 200 nM

O=C1CCN(c2cncc3c(C#CCO[C@@H]4CCN(C[C@H]5CC[C@H](n6cc(NC(=O)c7cnn8ccc(N9C[C@H]%10C[C@@H]9CO%10)nc78)c(C(F)F)n6)CC5)C[C@@H]4F)cccc23)C(=O)N1 [I-41]
DC50 [1]: < 10 nM
DC50 [2]: > 200 nM

C[C@@H]1CN(C[C@H]2CC[C@H](n3cc(NC(=O)c4cnn5ccc(N6C[C@H]7C[C@@H]6CO7)nc45)c(C(F)F)n3)CC2)CCN1CC#Cc1cccc2c1n(C)c(=O)n2C1CCC(=O)NC1=O (stereo partly shown) [I-42]
DC50 [1]: 10 to 100 nM
DC50 [2]: > 200 nM

CN1C(=O)CCC(n2c(=O)n(C)c3c(C#CCN4CCN(C[C@H]5CC[C@H](n6cc(NC(=O)c7cnn8ccc(N9C[C@H]%10C[C@@H]9CO%10)nc78)c(C(F)F)n6)CC5)CC4)cccc32)C1=O (stereo partly shown) [I-43]
DC50 [1]: > 200 nM
DC50 [2]: > 200 nM

Cn1c(=O)n(C2CCC(=O)NC2=O)c2cccc(C#CCN3CCN(C[C@H]4CC[C@H](n5cc(NC(=O)c6cnn7ccc(N8C[C@H]9OC[C@@H]8O9)nc67)c(C(F)F)n5)CC4)CC3)c21 (stereo partly shown) [I-44]
DC50 [1]: 10 to 100 nM
DC50 [2]: > 200 nM

Cn1c(=O)n(C2CCC(=O)NC2=O)c2cccc(C#CCN3C[C@H]4C[C@@H]3CN4C[C@H]3CC[C@H](n4cc(NC(=O)c5cnn6ccc(N7C[C@H]8C[C@@H]7CO8)nc56)c(C(F)F)n4)CC3)c21 (stereo partly shown) [I-45]
DC50 [1]: 10 to 100 nM
DC50 [2]: > 200 nM

O=C1CCN(c2cncc3c(C#CCO[C@H]4CCN(C[C@H]5CC[C@H](n6cc(NC(=O)c7cnn8ccc(N9C[C@H]%10C[C@@H]9CO%10)nc78)c(C(F)F)n6)CC5)C[C@H]4F)cccc23)C(=O)N1 [I-46]
DC50 [1]: < 10 nM
DC50 [2]: > 200 nM

C[C@H]1CN(C[C@H]2CC[C@H](n3cc(NC(=O)c4cnn5ccc(N6C[C@H]7C[C@@H]6CO7)nc45)c(C(F)F)n3)CC2)CC[C@@H]1OCC#Cc1cccc2c1n(C)c(=O)n2C1CCC(=O)N(C)C1=O (stereo partly shown) [I-47]
DC50 [1]: > 200 nM
DC50 [2]: > 200 nM

C[C@@H]1CN(C[C@H]2CC[C@H](n3cc(NC(=O)c4cnn5ccc(N6C[C@@H]7C[C@H]6CO7)nc45)c(C(F)F)n3)CC2)CC[C@H]1OCC#Cc1cccc2c1n(C)c(=O)n2C1CCC(=O)NC1=O (stereo partly shown) [I-48]
DC50 [1]: 10 to 100 nM
DC50 [2]: > 200 nM

C[C@@H]1CN(C[C@H]2CC[C@H](n3cc(NC(=O)c4cnn5ccc(N6C[C@H]7C[C@@H]6CO7)nc45)c(C(F)F)n3)CC2)CC[C@H]1OCC#Cc1ccc2c(N3CCC(=O)NC3=O)cncc2c1 [I-49]
DC50 [1]: 10 to 100 nM
DC50 [2]: > 200 nM
